Assays:
[1] = Clinical study: plasma concentrations after OTF administration; conditions: for plasma level following OTF compared to intravenous administration of 20 mg (S)-ketamine / Cmax: human; for plasma level following OTF compared to intravenous administration of 20 mg (S)-ketamine: in vivo; for Cmax: plasma, Cmax plasma concentration
[2] = averaged; cited from earlier work
[3] = Clinical study: safety, compatibility, adverse events
[4] = Clinical study: pharmacokinetic model (NONMEM), Tmax, AUC, oral bioavailability
[5] = human, plasma, other: sublingual or buccal, 50 mg
[6] = human, plasma, other: sublingual or buccal, 100 mg
[7] = All data, 50 mg OTF based on formulation 15
[8] = All data, 2 × 50 mg OTF based on formulation 15
[9] = Buccally, 50 mg OTF based on formulation 15
[10] = Buccally, 2 × 50 mg OTF based on formulation 15
[11] = Sublingually, 50 mg OTF based on formulation 15
[12] = Sublingually, 2 × 50 mg OTF based on formulation 15
[13] = 50 mg (S)-Ketamine OTF, calculated using PK model
[14] = 100 mg (S)-Ketamine OTF, calculated using PK model

In the case of CNC1(c2ccccc2Cl)CCCCC1=O (racemic) [(S)-ketamine, (S)-(±)-2-(2-chlorophenyl)-2-(methylamino)cyclohexan-1-one], the “plasma level following OTF compared to intravenous administration of 20 mg (S)-ketamine” value [1] is reported as “higher for intravenous administration”, the Cmax ([1]; 50 mg, Buccally, 50 mg OTF based on formulation 15) is reported as 117 ng/mL and the Cmax ([1]; 50 mg, Sublingually, 50 mg OTF based on formulation 15) is reported as 95 ng/mL. The Cmax ([1]; 100 mg, Buccally, 2 × 50 mg OTF based on formulation 15) was 158 ng/mL, the Cmax ([1]; 100 mg, Sublingually, 2 × 50 mg OTF based on formulation 15) was 138 ng/mL and the Cmax ([1]; other: sublingual or buccal (all data), 50 mg, All data, 50 mg OTF based on formulation 15) was 101 ng/mL. The Cmax ([1]; other: sublingual or buccal (all data), 100 mg, All data, 2 × 50 mg OTF based on formulation 15) was 143 ng/mL, the lethal dose [2] was 4.2 g/70 kg and the “Dizziness (prevalence of events)” value ([3]; 20 mg (S)-ketamine IV) was 4. The “Drowsiness (prevalence of events)” value ([3]; 20 mg (S)-ketamine IV) was 3, the “Dry eyes (prevalence of events)” value ([3]; 20 mg (S)-ketamine IV) was 1 and the “Headache (prevalence of events)” value ([3]; 20 mg (S)-ketamine IV) was 3. The “High blood pressure (SBP >180 mm Hg) (prevalence of events)” value ([3]; 20 mg (S)-ketamine IV) was 2, the “Nausea (prevalence of events)” value ([3]; 20 mg (S)-ketamine IV) was 2 and the “Sweating (prevalence of events)” value ([3]; 20 mg (S)-ketamine IV) was 1. For the same compound, the “Total side effects (prevalence of events)” value (shortened to “Total side effects”) ([3]; 20 mg (S)-ketamine IV) was 17, the “Whistling noise in the ear (prevalence of events)” value ([3]; 20 mg (S)-ketamine IV) was 1 and the “Blurred vision (prevalence of events)” value ([3]; 50 mg (S)-ketamine OTF) was 1. For the same compound, the “Bradykinesia (prevalence of events)” value ([3]; 50 mg (S)-ketamine OTF) was 1, the “Dizziness (prevalence of events)” value ([3]; 50 mg (S)-ketamine OTF) was 1 and the “Feeling of drunkenness (prevalence of events)” value ([3]; 50 mg (S)-ketamine OTF) was 2. The “Headache (prevalence of events)” value ([3]; 50 mg (S)-ketamine OTF) was 1, the “Nausea (prevalence of events)” value ([3]; 50 mg (S)-ketamine OTF) was 1 and the “Total side effects” value ([3]; 50 mg (S)-ketamine OTF) was 7. For the same compound, the “Bradykinesia (prevalence of events)” value ([3]; 100 mg (S)-ketamine OTF) was 1, the “Dizziness (prevalence of events)” value ([3]; 100 mg (S)-ketamine OTF) was 3 and the “Headache (prevalence of events)” value ([3]; 100 mg (S)-ketamine OTF) was 2. The “Nausea (prevalence of events)” value ([3]; 100 mg (S)-ketamine OTF) was 1, the “Numbness of the tongue (prevalence of events)” value ([3]; 100 mg (S)-ketamine OTF) was 2 and the “Total side effects” value ([3]; 100 mg (S)-ketamine OTF) was 9. The “adverse events in total” value ([3]; whole study, OTF and IV) was 33, the serious adverse events ([3]; whole study, OTF and IV) was “None of these was a serious adverse event” and the “test subjects reporting at least one adverse event” value ([3]; whole study, OTF and IV) was 18. The AUC(0-t) [4, 5] was 139 ng·h/mL, the Tmax [4, 5] was 18.8 min and the AUC(0-t) [4, 6] was 222 ng·h/mL. It also gave a Tmax [4, 6] of 19.1 min.

In the case of N[C@]1(c2ccccc2Cl)CCC[C@H](O)C1=O [(S)-Hydroxynorketamine], the Cmax plasma concentration [1, 7] is reported as 94 ng/mL, the Cmax plasma concentration [1, 8] is reported as 171 ng/mL and the Cmax plasma concentration [1, 9] is reported as 81 ng/mL. It also gave a Cmax plasma concentration [1, 10] of 165 ng/mL, a Cmax plasma concentration [1, 11] of 98 ng/mL and a Cmax plasma concentration [1, 12] of 173 ng/mL. For the same compound, the “plasma level following OTF compared to intravenous administration of 20 mg (S)-ketamine” value [1] was “higher following administration of an OTF”, the Tmax [4, 13] was 81 (69-92) min and the Tmax [4, 14] was 109 (89-130) min.

In the case of N[C@]1(c2ccccc2Cl)CCCCC1=O [(S)-Norketamine], the Cmax plasma concentration [1, 7] is reported as 254 ng/mL, the Cmax plasma concentration [1, 8] is reported as 330 ng/mL and the Cmax plasma concentration [1, 9] is reported as 242 ng/mL. For the same compound, the Cmax plasma concentration [1, 10] was 450 ng/mL, the Cmax plasma concentration [1, 11] was 258 ng/mL and the Cmax plasma concentration [1, 12] was 323 ng/mL. For the same compound, the “plasma level following OTF compared to intravenous administration of 20 mg (S)-ketamine” value [1] was “higher following administration of an OTF”, the Tmax [4, 13] was 61 (53-68) min and the Tmax [4, 14] was 78 (66-91) min.

From US20230404914A1 (priority 2020, published 2023)
